Source: US12077503B2, “Substituted cyclic amides and their use as herbicides” (FMC CORPORATION, priority 2015, dated 2024)
Read-outs that look alike come from different tables or passages of the source.

Key:
[1] = tested on: wheat (Triticum aestivum); assay: Test A postemergence; format: in vivo; details: Triticum aestivum, post-emergence, 240 h; for plant injury at 125 g/ha: 125 g ai/ha; for plant injury at 500 g/ha: 500 g ai/ha, 0 to 100 scale, 0 is no effect, 100 is complete control
Method in brief: (§1)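 Ratings of 0 (no effect) to 100 (complete control) come from visual comparison with untreated controls roughly 10 d after treatment. Test chemicals, formulated in a non-phytotoxic solvent mixture with surfactant, were applied either as a preemergence directed soil spray on seeded soil or postemergence to one- to two-leaf plants 2 to 10 cm tall.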

[2] = tested on: giant foxtail (Setaria faberii); assay: Test A postemergence; format: in vivo; details: Setaria faberi, post-emergence, 240 h; for pest or weed control at 125 g/ha: 125 g ai/ha; for pest or weed control at 500 g/ha: 500 g ai/ha, 0 to 100 scale, 0 is no effect, 100 is complete control
Method in brief: as §1

[3] = tested on: blackgrass (Alopecurus myosuroides); assay: Test A postemergence; format: in vivo; details: Alopecurus myosuroides, post-emergence, 240 h; for pest or weed control at 125 g/ha: 125 g ai/ha; for pest or weed control at 500 g/ha: 500 g ai/ha, 0 to 100 scale, 0 is no effect, 100 is complete control
Method in brief: as §1

[4] = tested on: ryegrass, Italian (Italian ryegrass, Lolium multiflorum); assay: Test A postemergence; format: in vivo; details: Lolium multiflorum, post-emergence, 240 h; for pest or weed control at 125 g/ha: 125 g ai/ha; for pest or weed control at 500 g/ha: 500 g ai/ha, 0 to 100 scale, 0 is no effect, 100 is complete control
Method in brief: as §1

[5] = tested on: ragweed (common ragweed, Ambrosia elatior); assay: Test A postemergence; format: in vivo; details: Ambrosia artemisiifolia, post-emergence, 240 h; for pest or weed control at 125 g/ha: 125 g ai/ha; for pest or weed control at 500 g/ha: 500 g ai/ha, 0 to 100 scale, 0 is no effect, 100 is complete control
Method in brief: as §1

[6] = Postemergence, visual injury after approximately 10 d, 0 to 100 scale where 0 is no effect and 100 is complete control, read-out: Plant response rating, Wheat
[7] = Postemergence, visual injury after approximately 10 d, 0 to 100 scale where 0 is no effect and 100 is complete control, read-out: Plant response rating, Foxtail, Giant
[8] = Postemergence, visual injury after approximately 10 d, 0 to 100 scale where 0 is no effect and 100 is complete control, read-out: Plant response rating, Blackgrass
[9] = Postemergence, visual injury after approximately 10 d, 0 to 100 scale where 0 is no effect and 100 is complete control, read-out: Plant response rating, Ryegrass, Italian
[10] = Postemergence, visual injury after approximately 10 d, 0 to 100 scale where 0 is no effect and 100 is complete control, read-out: Plant response rating, Ragweed
[11] = postemergence, visual injury on 0 to 100 scale (0 no effect, 100 complete control), approx. 10 d, read-out: Wheat plant response rating
[12] = postemergence, read-out: Wheat plant response rating
[13] = postemergence, visual injury on 0 to 100 scale (0 no effect, 100 complete control), approx. 10 d, read-out: Foxtail, Giant plant response rating
[14] = postemergence, read-out: Foxtail, Giant plant response rating
[15] = postemergence, visual injury on 0 to 100 scale (0 no effect, 100 complete control), approx. 10 d, read-out: Blackgrass plant response rating
[16] = postemergence, read-out: Blackgrass plant response rating
[17] = postemergence, visual injury on 0 to 100 scale (0 no effect, 100 complete control), approx. 10 d, read-out: Ryegrass, Italian plant response rating
[18] = postemergence, read-out: Ryegrass, Italian plant response rating
[19] = postemergence, visual injury on 0 to 100 scale (0 no effect, 100 complete control), approx. 10 d, read-out: Ragweed plant response rating
[20] = postemergence, read-out: Ragweed plant response rating
[21] = postemergence, visual injury vs untreated controls after approx. 10 d, 0 = no effect, 100 = complete control, read-out: Wheat plant response rating (0 to 100 scale)
[22] = postemergence, visual injury vs untreated controls after approx. 10 d, 0 = no effect, 100 = complete control, read-out: Foxtail, Giant plant response rating (0 to 100 scale)
[23] = postemergence, visual injury vs untreated controls after approx. 10 d, 0 = no effect, 100 = complete control, read-out: Blackgrass plant response rating (0 to 100 scale)
[24] = postemergence, visual injury vs untreated controls after approx. 10 d, 0 = no effect, 100 = complete control, read-out: Ryegrass, Italian plant response rating (0 to 100 scale)
[25] = postemergence, visual injury vs untreated controls after approx. 10 d, 0 = no effect, 100 = complete control, read-out: Ragweed plant response rating (0 to 100 scale)

SMILES	plant injury at 125 g/ha [1, 6] [%]	pest or weed control at 125 g/ha [2, 7] [%]	pest or weed control at 125 g/ha [3, 8] [%]	pest or weed control at 125 g/ha [4, 9] [%]	pest or weed control at 125 g/ha [5, 10] [%]	melting point [°C]	plant injury at 125 g/ha [1, 11] [%]	plant injury at 500 g/ha [1, 12] [%]	pest or weed control at 125 g/ha [2, 13] [%]	pest or weed control at 500 g/ha [2, 14] [%]	pest or weed control at 125 g/ha [3, 15] [%]	pest or weed control at 500 g/ha [3, 16] [%]	pest or weed control at 125 g/ha [4, 17] [%]	pest or weed control at 500 g/ha [4, 18] [%]	pest or weed control at 125 g/ha [5, 19] [%]	pest or weed control at 500 g/ha [5, 20] [%]	plant injury at 125 g/ha [1, 21] [%]	pest or weed control at 125 g/ha [2, 22] [%]	pest or weed control at 125 g/ha [3, 23] [%]	pest or weed control at 125 g/ha [4, 24] [%]	other results
Cc1cccc(NC(=O)[C@H]2C(=O)N(C)C[C@@H]2c2ccc(C(F)(F)F)cc2)c1F [Compound 939]	20	90	0	0	0	178 to 181															
Cc1cccc(NC(=O)[C@H]2C(=O)N(C)C[C@@H]2c2ccc(C(F)(F)F)cc2)c1C [Compound 941]	0	60	0	0	0	166 to 169															
CN1C[C@H](c2ccc(C(F)(F)F)cc2)[C@@H](C(=O)Nc2ccc(F)cc2C(F)(F)F)C1=O [Compound 942]	20	80	70	0	0	113 to 116															
CCc1cccc([C@H]2CCNC(=O)[C@@H]2C(=O)Nc2cccc(F)c2F)c1 [Compound 1058]						128 to 132	0	0	0	0	30	40	0	0	80	90					
CN1CC(c2cccc(/C=C/Cl)c2)C(C(=O)Nc2ccccc2F)C1=O (centres unmarked) [Compound 1129]						97 to 101	0	0	70	90	0	0	0	0	0	0					
CN1CC(c2cccc(O)c2)C(C(=O)Nc2cccc(F)c2F)C1=O (centres unmarked) [Compound 1130]						216 to 220	0	0	0	30	0	0	0	0	0	0					
O=C1NC[C@H](c2ccc(F)c(OC(F)(F)C(F)F)c2)[C@H]1C(=O)Nc1ccccc1F [Compound 1133]						119 to 123	60	70	90	90	30	70	20	40	60	70					
CCc1cc([C@H]2CN(C)C(=O)[C@@H]2C(=O)Nc2ccccc2F)cs1 [Compound 1156]						117 to 121		50		90		40		30		0	20	90	0	20	pest or weed control at 125 g/ha [5, 25]: 0%
O=C1NCC[C@H](c2cccc(Cl)c2)[C@H]1C(=O)Nc1ccccc1F [Compound 1159]						141 to 143		0		70		0		0		0	0	40	0	0	pest or weed control at 125 g/ha [5, 25]: 0%
O=C1NC[C@H](c2nccs2)[C@H]1C(=O)Nc1cccc(F)c1F [Compound 1182]						139.5 to 153		0		0		0		0		0	0	0	0	0	pest or weed control at 125 g/ha [5, 25]: 0%
